Laboratory results: patent publication US20140314791A1, “METHODS OF TREATING CANCER” (DANA-FARBER CANCER INSTITUTE, INC., priority 2012, published 2014)

What was measured:
Lkb1-null cells = assay: IdU pulse-labeling after Dtymk knockdown, Lkb1-null; format: cell-based, mouse; details: for proportion of cells labeled with IdU: mean
Experimental: (E) Lkb1-wt and Lkb1-null cells in 6-well plates were transduced with shDtymk-1 or shGFP. Two sets of the cells were plated into multiple chamber slides: one was 2 days and the other was 3 days post transduction. After overnight culturing, the cells were labeled with 100 μM IdU for 20 min then fixed for indirect immunofluorescence staining with anti-BrdU. The data represent mean±SD for 200˜300 cells. Representative merged images of BrdU (red) and DAPI (blue) in the indicated cells are shown (F).
The lower expression of DTYMK in Lkb1-null cells causes the cells to be in jeopardy of DNA damage. To investigate how further knockdown of Dtymk and the consequent decrease in the dTTP pool could affect DNA metabolism, IdU pulse-labeling in Lkb1-wt and Lkb1-null cells was performed 2.5 and 3.5 days post-transduction with shDtymk-1. […] The representative images of Lkb1-wt and Lkb1-null cells co-stained for IdU and DAPI are shown (FIG. 5F). In addition, an overall lower proportion of labeled Lkb1-null than Lkb1-wt cells (43.1% vs. 57.7%) was observed, which may be related to the lower dNTP levels in Lkb1-null cells.

[1] = tested on: dTMP and dTDP levels in Lkb1-wt 634 and Lkb1-null t4 cells; assay: Metabolite analysis of dTMP and dTDP after Dtymk knockdown; format: cell-based, mouse; details: 3 days
Experimental: (A) Graph of dTMP and dTDP levels in Lkb1-wt 634, Lkb1-null t4, and human LKB1-deficient NSCLC A549 cells transduced with the indicated shRNA for 3 days. The data represent mean±SD for 6 replicates.
Cells were plated into 6-well plates in RPMI 1640/10% dialyzed FBS/1% pen/strep and medium was changed daily. When the cells reached 80% confluence, they were washed 3 times with warm washing buffer (75 mM ammonium carbonate, pH7.4), and plates were then immediately placed on dry ice. 500 μl of extraction buffer (80% methanol, −80° C.) was added to each well and the plates were kept on dry ice for 15 min. The supernatants were collected into 1.5 ml eppendorf tubes, and another 500 μl of cold extraction buffer was added to each well. After 15 min incubation on dry ice, the supernatant and the cells were collected and pooled with the previously collected supernatant. The tubes were spun at 3750 rpm/4° C. for 30 min, and then supernatants were transferred into fresh tubes and saved at −80° C. All reactions were performed with 5 replicates.
Prior to mass spectrometer injection, dried extracts were reconstituted in LCMS grade water. Non-targeted, flow-injection time-of-flight mass spectrometry was performed as described (Fuhrer et al., 2011). […] Mass spectra were recorded from m/z 50 to 1000 with a frequency of 1.4 spectra/s for 0.48 min using the highest resolving power (4 GHz HiRes). […]

## shDtymk-1: shRNA hairpin CAAGCTTCTGAATTCCTACTT targeting Mouse Dtymk
Lkb1-null cells; day 2.5 post infection
  proportion of cells labeled with IdU: 17.2%
Lkb1-null cells; day 3.5 post infection
  proportion of cells labeled with IdU: 5.8%
Lkb1-null cells; in 3.5 days
  drop of proportion of IdU-labeled cells: 86.5%
[1]
  dTDP level: moderate decrease
  dTMP level: significant increase
